Results from patent US10981926B2 (Janssen Pharmaceutica NV, priority 2016, dated 2021).

Key:
[1] = molecular target: T1, F876L mutant Androgen Receptor (AR-F876L) (Homo sapiens (Human), UniProt P10275, F877L); assay: LNCaP-AR-F876L ANT reporter assay (antagonist mode); assay type: cell-based; settings: for IC50 / LNCaP-AR-F876L ANT pIC50: antagonist mode, pIC50 = −Log10(IC50 in Molar); for IC50: read-out: LNCaP-AR-F876L ANT pIC50 (converted); for Emax: maximum % inhibition of R1881 control response over the tested concentration range, read-out: LNCaP-AR-F876L ANT MAX % Inh
[2] = molecular target: T2, wild-type Androgen Receptor (AR-wt) (Homo sapiens (Human), UniProt P10275); assay: LNCaP-AR-wt ANT reporter assay (antagonist mode); assay type: cell-based; settings: for IC50 / LNCaP-AR-wt ANT pIC50: antagonist mode, pIC50 = −Log10(IC50 in Molar); for IC50: read-out: LNCaP-AR-wt ANT pIC50 (converted); for Emax: maximum % inhibition of R1881 control response over the tested concentration range, read-out: LNCaP-AR-wt ANT MAX % Inh
[3] = molecular target: T2, wild-type Androgen Receptor (AR-wt); assay: LNCaP-AR-wt AG reporter assay (agonist mode); assay type: cell-based; settings: for EC50: agonist mode, pEC50 = −Log10(EC50 in Molar), read-out: LNCaP-AR-wt AG pEC50 (converted); for Emax: maximum % stimulation (agonist response) over the tested concentration range, read-out: LNCaP-AR-wt AG MAX % Stim
[4] = molecular target: T1, F876L mutant Androgen Receptor (AR-F876L); assay: LNCaP-AR-F876L AG reporter assay (agonist mode); assay type: cell-based; settings: for EC50: agonist mode, pEC50 = −Log10(EC50 in Molar), read-out: LNCaP-AR-F876L AG pEC50 (converted); for Emax: maximum % stimulation (agonist response) over the tested concentration range, read-out: LNCaP-AR-F876L AG MAX % Stim
[5] = system: rGABA-gated Cl− channel; assay: GABA-Gated Cl Channel Antagonist Radioligand Binding Assay; design: species or system rat; settings: 10 μM single point, [35S]-TBPS, cerebral cortex membrane homogenates
Summary of the method: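 Rat cerebral cortex membranes (120 μg protein) incubated 120 min at 22° C with 3 nM […] in 50 mM Na2HPO4/KH2PO4 pH 7.4, 500 mM NaCl; nonspecific binding defined with 20 μM picrotoxinin. Bound label counted after filtration; values are percent inhibition of specific binding at 10 μM compound.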

T1 sequence (P10275 whole entry F877L): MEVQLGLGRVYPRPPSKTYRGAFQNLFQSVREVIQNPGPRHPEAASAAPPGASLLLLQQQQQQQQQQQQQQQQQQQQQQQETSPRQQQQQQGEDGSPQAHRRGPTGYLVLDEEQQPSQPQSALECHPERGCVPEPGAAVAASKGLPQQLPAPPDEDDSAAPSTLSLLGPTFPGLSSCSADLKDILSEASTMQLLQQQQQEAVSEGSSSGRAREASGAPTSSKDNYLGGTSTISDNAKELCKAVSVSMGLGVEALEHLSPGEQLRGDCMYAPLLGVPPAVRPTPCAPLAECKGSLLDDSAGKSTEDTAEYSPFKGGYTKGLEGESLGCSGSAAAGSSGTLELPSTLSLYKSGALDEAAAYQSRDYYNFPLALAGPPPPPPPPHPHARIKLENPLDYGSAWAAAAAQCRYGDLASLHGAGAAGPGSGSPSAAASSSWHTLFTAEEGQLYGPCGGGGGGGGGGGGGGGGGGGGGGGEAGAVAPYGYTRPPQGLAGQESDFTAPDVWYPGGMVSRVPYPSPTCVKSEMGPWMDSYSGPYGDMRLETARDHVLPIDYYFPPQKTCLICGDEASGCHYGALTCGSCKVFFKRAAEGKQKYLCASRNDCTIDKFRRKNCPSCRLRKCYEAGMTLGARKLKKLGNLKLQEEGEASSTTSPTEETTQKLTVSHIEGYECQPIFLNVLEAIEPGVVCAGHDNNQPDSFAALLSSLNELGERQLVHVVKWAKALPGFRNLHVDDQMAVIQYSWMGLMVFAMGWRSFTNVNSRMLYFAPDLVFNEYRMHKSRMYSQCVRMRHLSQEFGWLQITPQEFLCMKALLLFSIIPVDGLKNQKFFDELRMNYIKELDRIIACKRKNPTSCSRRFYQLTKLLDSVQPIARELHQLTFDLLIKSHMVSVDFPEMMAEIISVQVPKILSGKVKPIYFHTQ
T2 sequence (P10275 whole entry): as the sequence (P10275 whole entry F877L) above, with L877F counted along it

| SMILES | IC50 [1] | Emax [1] | IC50 [2] | Emax [2] | EC50 [3] | Emax [3] | EC50 [4] | Emax [4] | rGABA-gated Cl− channel % inh @10 μM [5] | LNCaP-AR-F876L ANT pIC50 [1] | LNCaP-AR-wt ANT pIC50 [2] |
| --- | --- | --- | --- | --- | --- | --- | --- | --- | --- | --- | --- |
| CN1CCC(Cn2cc3cc(N4C(=S)N(c5cnc(C#N)c(C(F)(F)F)c5)C(=O)C45CCC5)ccc3n2)CC1 [Cpd 129, 5-[8-[2-[(1-methyl-4-piperidyl)methyl]indazol-5-yl]-5-oxo-7-thioxo-6,8-diazaspiro[3.4]octan-6-yl]-3-(trifluoromethyl)pyridine-2-carbonitrile] | 36.3 nM | 100% | 77.6 nM | 102% | > 15100 nM | 0.9% | > 15100 nM | 0.1% | 64.0% |  |  |
| CC(=O)N1CCC(n2ncc3cc(N4C(=S)N(c5cnc(C#N)c(C(F)(F)F)c5)C(=O)C45CCC5)ccc32)CC1 [Cpd 131, 5-[8-[1-(1-acetyl-4-piperidyl)indazol-5-yl]-5-oxo-7-thioxo-6,8-diazaspiro[3.4]octan-6-yl]-3-(trifluoromethyl)pyridine-2-carbonitrile] | 708 nM | 97.9% | 589 nM | 101% | > 15100 nM | -0.1% | > 15100 nM | 0.3% | 97.4% |  |  |
| Cn1cc(N2C(=S)N(c3cnc(C#N)c(C(F)(F)F)c3)C(=O)C23CCC3)ccc1=O [Cpd 133, 5-(5-(1-methyl-6-oxo-1,6-dihydropyridin-3-yl)-8-oxo-6-thioxo-5,7-diazaspiro[3.4]octan-7-yl)-3-(trifluoromethyl)picolinonitrile] | 977 nM | 99% | 1580 nM | 98.3% | > 15100 nM | 0.7% | > 15100 nM | 0.6% | −8.5% |  |  |
| C[C@@H]1OC(c2ccc(N3C(=S)N(c4cnc(C#N)c(C(F)(F)F)c4)C(=O)C34CCC4)cc2)=C[C@H](O)[C@H]1O [Cpd 135, 5-(5-(4-((2S,3R,4S)-3,4-dihydroxy-2-methyl-3,4-dihydro-2H-pyran-6-yl)phenyl)-8-oxo-6-thioxo-5,7-diazaspiro[3.4]octan-7-yl)-3-(trifluoromethyl)picolinonitrile] | 155 nM | 102% | 389 nM | 104% | > 15100 nM | 0.1% | > 15100 nM | -0.1% | 99.6% |  |  |
| N#Cc1ncc(N2C(=O)C3(CCC3)N(c3ccc(OC4C5CCC4CNC5)cc3)C2=S)cc1C(F)(F)F (stereo not drawn) [Cpd 138, 5-[8-[4-(3-azabicyclo[3.2.1]octan-8-yloxy)phenyl]-5-oxo-7-thioxo-6,8-diazaspiro[3.4]octan-6-yl]-3-(trifluoromethyl)pyridine-2-carbonitrile] | 269 nM | 100% | 427 nM | 103% | > 15100 nM | -0.1% | > 15100 nM | 0.1% | 35.6% |  |  |
| Cl.N#Cc1ncc(N2C(=O)C3(CCC3)N(c3cnc(OC4CCNCC4)nc3)C2=S)cc1C(F)(F)F [Cpd 141, 5-{8-Oxo-5-[2-(piperidin-4-yloxy)-pyrimidin-5-yl]-6-thioxo-5,7-diaza-spiro[3.4]oct-7-yl}-3-trifluoromethyl-pyridine-2-carbonitrile] |  | 66.8% |  | 84.9% | > 15100 nM | -0.1% | > 15100 nM | 0% | 56.1% | 6.51 | 6.30 |
| CN1CCC(C(=O)c2ccc(N3C(=S)N(c4cnc(C#N)c(C(F)(F)F)c4)C(=O)C34CCC4)cc2)CC1 [Cpd 144, 5-[8-[4-(1-methylpiperidine-4-carbonyl)phenyl]-5-oxo-7-thioxo-6,8-diazaspiro[3.4]octan-6-yl]-3-(trifluoromethyl)pyridine-2-carbonitrile] | 363 nM | 99.9% | 1100 nM | 98.3% | > 15100 nM | 0.3% | > 15100 nM | 0.6% | 42.3% |  |  |
| N#Cc1ncc(N2C(=O)C3(CCC3)N(c3ccc(OC4CC5(CCN5)C4)cc3)C2=S)cc1C(F)(F)F (stereo not drawn) [Cpd 148, 5-[8-[4-(3-azaspiro[3.3]heptan-6-yloxy)phenyl]-5-oxo-7-thioxo-6,8-diazaspiro[3.4]octan-6-yl]-3-(trifluoromethyl)pyridine-2-carbonitrile] | 126 nM | 101% | 302 nM | 101% | > 15100 nM | 0.1% | > 15100 nM | 0.6% | 77.3% |  |  |
| CC(C)CCN1CCC(Oc2ccc(N3C(=S)N(c4cnc(C#N)c(Cl)c4)C(=O)C34CCC4)cn2)CC1 [Cpd 149, 3-chloro-5-[8-[6-[(1-isopentyl-4-piperidyl)oxy]-3-pyridyl]-5-oxo-7-thioxo-6,8-diazaspiro[3.4]octan-6-yl]pyridine-2-carbonitrile] | 105 nM | 97.9% | 81.3 nM | 99.8% | > 15100 nM | 0.5% | > 15100 nM | 1.5% | 35.4% |  |  |
| CN1CCC(Oc2ncc(N3C(=S)N(c4cnc(C#N)c(C(F)(F)F)c4)C(=O)C34CCC4)cn2)CC1 [Cpd 152, 5-[8-[2-[(1-methyl-4-piperidyl)oxy]pyrimidin-5-yl]-5-oxo-7-thioxo-6,8-diazaspiro[3.4]octan-6-yl]-3-(trifluoromethyl)pyridine-2-carbonitrile] |  | 99.9% |  | 101% | > 15100 nM | 0.2% | > 15100 nM | 0.1% | 15.1% | 6.37 | 6.38 |
| COc1cc(N2C(=O)C3(CCC3)N(c3ccc(OC4CCNCC4)cc3)C2=S)cnc1C#N [Cpd 154, 3-methoxy-5-[5-oxo-8-[4-(4-piperidyloxy)phenyl]-7-thioxo-6,8-diazaspiro[3.4]octan-6-yl]pyridine-2-carbonitrile] | 269 nM | 100% | 468 nM | 102% | > 15100 nM | -0.1% | > 15100 nM | -0.1% | −22.2% |  |  |
| N#Cc1ncc(N2C(=O)C3(CCC3)N(c3ccc4nn(CCO)cc4c3)C2=S)cc1C(F)(F)F [Cpd 161, 5-[8-[2-(2-hydroxyethyl)indazol-5-yl]-5-oxo-7-thioxo-6,8-diazaspiro[3.4]octan-6-yl]-3-(trifluoromethyl)pyridine-2-carbonitrile] | 468 nM | 99.3% | 1050 nM | 97.2% | > 15100 nM | 0.2% | > 15100 nM | 0.3% | 77.9% |  |  |
| N#Cc1ncc(N2C(=O)C3(CCC3)N(c3ccc4nn(CCO)cc4c3)C2=S)cc1Cl [Cpd 162, 3-chloro-5-[8-[2-(2-hydroxyethyl)indazol-5-yl]-5-oxo-7-thioxo-6,8-diazaspiro[3.4]octan-6-yl]pyridine-2-carbonitrile] | 158 nM | 99.2% | 324 nM | 96.4% | > 15100 nM | -0.1% | > 15100 nM | 0% | 48.5% |  |  |
| COCCn1cc2cc(N3C(=S)N(c4cnc(C#N)c(Cl)c4)C(=O)C34CCC4)ccc2n1 [Cpd 169, 3-chloro-5-[8-[2-(2-methoxyethyl)indazol-5-yl]-5-oxo-7-thioxo-6,8-diazaspiro[3.4]octan-6-yl]pyridine-2-carbonitrile] | 112 nM | 100% | 186 nM | 99.6% | > 15100 nM | 0.2% | > 15100 nM | 0.2% | 80.8% |  |  |
| COCCn1cc2cc(N3C(=S)N(c4cnc(C#N)c(C(F)(F)F)c4)C(=O)C34CCC4)ccc2n1 [Cpd 172, 5-[8-[2-(2-methoxyethyl)indazol-5-yl]-5-oxo-7-thioxo-6,8-diazaspiro[3.4]octan-6-yl]-3-(trifluoromethyl)pyridine-2-carbonitrile] | 174 nM | 100% | 339 nM | 99.2% | > 15100 nM | 0.2% | > 15100 nM | -0.1% | 94.9% |  |  |
